Measurements taken from the RepoRT retention time repository.
Structures can show the parent of a compound that is named as a salt.

Assay: RP, Thermo Scientific Hypersil GOLD, 1.9 µm, 40 °C, 0.4 mL/min; A: water + 0.1% formic acid, pH 3; B: acetonitrile + 0.1% formic acid, pH 3; gradient (min/%B) 0/0 1/0 11/100 13/100 14/0 16/0
Conditions: stereoisomer not certain

| SMILES | LC retention time [min] |
| --- | --- |
| CSCC1OC(n2cnc3c(N)ncnc32)C(O)C1O (stereo not drawn) [METHYLTHIOADENOSINE] | 4.41 |
| NC(=O)c1ccccc1O [SALICYLAMIDE] | 5.33 |
| NCCc1ccc(O)c(O)c1 [DOPAMINE] | 0.83 |
| O=c1[nH]c(=O)c2[nH]cnc2[nH]1 [XANTHINE] | 0.82 |
| CCCCCCCCCCCCCCCCCCCCCCC(=O)[O-] [TRICOSANOATE] | 14.6 |
| CC1NC(=O)NC1CCCCCC(=O)O (stereo not drawn) [DETHIOBIOTIN] | 5.47 |
| OCCNCCO [DIETHANOLAMINE] | 0.6 |
| Cc1ncc(C[n+]2csc(CCOP(=O)(O)O)c2C)c(N)n1 [THIAMINE MONOPHOSPHATE] | 0.63 |
| CCCCCCCCCCCCCC=CC(O)C(CO)NC(C)=O [N-Acetyl-D-sphingosine] | 10.8 |
| NC(=O)[C@@H](N)Cc1c[nH]c2ccccc12 [L-TRYPTOPHANAMIDE] | 4.1 |
| COc1cc(CCN)ccc1O [3-METHOXYTYRAMINE] | 2.47 |
| Cn1cnc2c(ncn2C2OC(CO)C(O)C2O)c1=N (stereo not drawn) [1-METHYLADENOSINE] | 3.82 |
| O=c1[nH]cnc2c1ncn2C1OC(CO)C(O)C1O (stereo not drawn) [INOSINE] | 1.53 |
| C[N+](C)(C)CCCC(=O)O [DEOXYCARNITINE] | 0.67 |
| OCC1OC(OC2OC(CO)C(O)C(O)C2O)C(O)C(O)C1O (stereo not drawn) [TREHALOSE] | 0.65 |
| O=C(O)C(=O)CS [MERCAPTOPYRUVATE] | 0.89 |
| Nc1nc2c(ncn2C2OC(COP(=O)(O)OP(=O)(O)OC3OC(CO)C(O)C(O)C3O)C(O)C2O)c(=O)[nH]1 (stereo not drawn) [GUANOSINE DIPHOSPHATE MANNOSE] | 4.1 |
| Oc1ccc(C=Cc2cc(O)cc(O)c2)cc1 [resveratrol] | 6.28 |
| OCC1OC(OCC2OC(O)(CO)C(O)C2O)C(O)C(O)C1O (stereo not drawn) [PALATINOSE] | 0.67 |
| Cc1ncc(CO)c(C(=O)O)c1O [4-PYRIDOXATE] | 1.73 |
| C[N+](C)(C)CCCCC(N)C(=O)[O-] (stereo not drawn) [N-N-N-TRIMETHYLLYSINE] | 0.59 |
| Nc1ncnc2c1ncn2C1OC(CSCCC([NH3+])C(=O)[O-])C(O)C1O (stereo not drawn) [S-ADENOSYLHOMOCYSTEINE] | 0.82 |
| NC(N)=NCCCC(=O)O [4-GUANIDINOBUTANOATE] | 0.84 |
| Nc1nc2c(ncn2C2OC3COP(=O)(O)OC3C2O)c(=O)[nH]1 (stereo not drawn) [CYCLIC GMP] | 1.29 |

| SMILES | LC retention time [min] |
| --- | --- |
| NC(CCS)C(=O)O (stereo not drawn) [HOMOCYSTEINE] | 0.72 |
| CC(CCC(=O)O)C1CCC2C3CCC4CC(O)CCC4(C)C3CC(O)C12C (stereo not drawn) [deoxycholic acid] | 9.28 |
| C/C(=C\C(=O)O)CC(=O)O [(E)-3-Methylglutaconic acid] | 4.1 |
| Cn1c(=O)c2c(ncn2C)n(C)c1=O [CAFFEINE] | 4.85 |
| CC1OC(n2cnc3c(N)ncnc32)C(O)C1O (stereo not drawn) [5'-DEOXYADENOSINE] | 3.66 |
| NCCCCN [PUTRESCINE] | 0.54 |
| C=C(C)C1CCC2(C(=O)O)CCC3(C)C(CCC4C5(C)CCC(O)C(C)(C)C5CCC43C)C12 (stereo not drawn) [Betulinic acid] | 11.2 |
| O=C1CCC(C(=O)O)N1 (stereo not drawn) [OXOPROLINE] | 0.82 |
| O=S(=O)(O)Oc1c[nH]c2ccccc12 [INDOXYL SULFATE] | 4.77 |
| Cc1ncc(CO)c(C=O)c1O [PYRIDOXAL] | 0.72 |
| Nc1ncccc1C(=O)O [2-Aminopyridine-3-carboxylic acid] | 0.81 |
| CC(=O)NCCCC(=O)O [4-ACETAMIDOBUTANOATE] | 1.69 |
| Nc1nc2c(ncn2C2CC(O)C(CO)O2)c(=O)[nH]1 (stereo not drawn) [DEOXYGUANOSINE] | 1.77 |
| Nc1ccn(C2CC(O)C(CO)O2)c(=O)n1 (stereo not drawn) [DEOXYCYTIDINE] | 0.83 |
| O=C(O)/C=C/c1c[nH]c2ccccc12 [trans-3-indoleacrylic acid] | 6.57 |
| Cn1c(=O)[nH]c(=O)c2[nH]cnc21 [3-Methylxanthine] | 2.61 |
| CCCCCCCCC=CCCCCCCCCCCCCCC(=O)[O-] [NERVONATE] | 14 |
| Cc1cnc(=O)[nH]c1N [5-METHYLCYTOSINE] | 0.7 |
| CNCC(O)c1ccc(O)c(O)c1 (stereo not drawn) [EPINEPHRINE] | 0.74 |
| CCCCCCCCCCCCCCCCC(=O)O [HEPTADECANOATE] | 12.7 |
| COC(=O)Cc1c[nH]c2ccccc12 [INDOLE-3-METHYL ACETATE] | 7.44 |
| C=CC1=C(C)C(=Cc2[nH]c(Cc3[nH]c(C=C4NC(=O)C(C)=C4C=C)c(C)c3CCC(=O)O)c(CCC(=O)O)c2C)NC1=O [BILIRUBIN] | 12.6 |
| O=C(O)CC(=O)CC(=O)O [1-3-Acetonedicarboxylic acid] | 0.8 |
| Cc1ccc(O)c(O)c1 [4-METHYLCATECHOL] | 6.6 |
